Assay results reported in ChEMBL document CHEMBL3352029, “Ring fusion strategy for the synthesis of anthra[2,3-d]oxazole-2-thione-5,10-dione homologues as DNA topoisomerase inhibitors and as antitumor agents” (Eur J Med Chem, 2014).
Calls of active or inactive are those of the source. No cut-off for these calls is given here.

Tests used:
[1] = Cytotoxicity against human PC3 cells assessed as inhibition of cell growth after 48 hrs by sulforhodamine B assay; type: functional, cell-based; conditions: PC-3, 48 h
[2] = molecular target: T1, DNA topoisomerase 1 (Homo sapiens) (UniProt P11387); experiment: Inhibition of human recombinant DNA topoisomerase 1 assessed as reduction in relaxation of supercoiled pHOT DNA at 25 to 50 uM incubated for 45 mins by ethidium bromide staining based gel electrophoresis
T1 sequence (whole entry): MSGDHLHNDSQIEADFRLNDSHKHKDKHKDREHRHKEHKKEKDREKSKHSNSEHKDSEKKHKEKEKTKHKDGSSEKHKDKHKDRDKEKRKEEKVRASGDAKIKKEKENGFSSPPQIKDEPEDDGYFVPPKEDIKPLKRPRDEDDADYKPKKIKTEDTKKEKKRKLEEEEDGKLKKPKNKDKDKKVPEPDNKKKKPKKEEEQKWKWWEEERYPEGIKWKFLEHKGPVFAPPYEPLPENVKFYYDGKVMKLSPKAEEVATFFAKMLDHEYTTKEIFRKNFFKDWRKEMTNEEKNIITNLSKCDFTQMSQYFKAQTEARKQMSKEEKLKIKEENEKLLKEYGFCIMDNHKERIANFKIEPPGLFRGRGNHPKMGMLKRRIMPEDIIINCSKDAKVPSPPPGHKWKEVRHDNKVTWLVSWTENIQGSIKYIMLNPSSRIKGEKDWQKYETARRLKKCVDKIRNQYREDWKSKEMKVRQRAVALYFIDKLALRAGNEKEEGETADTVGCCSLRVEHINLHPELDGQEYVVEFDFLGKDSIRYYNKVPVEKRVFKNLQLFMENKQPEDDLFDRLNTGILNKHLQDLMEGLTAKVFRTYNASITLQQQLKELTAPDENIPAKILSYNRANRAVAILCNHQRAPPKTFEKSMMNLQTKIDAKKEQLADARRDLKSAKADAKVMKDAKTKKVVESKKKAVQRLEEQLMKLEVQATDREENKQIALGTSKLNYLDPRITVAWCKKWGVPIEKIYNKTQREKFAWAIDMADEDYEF

CCRF-CEM = experiment: Cytotoxicity against human CCRF-CEM cells assessed as cell growth level at 10 uM after 48 hrs by sulforhodamine B assay; type: functional
HL-60(TB) = experiment: Cytotoxicity against human HL-60(TB) cells assessed as cell growth level at 10 uM after 48 hrs by sulforhodamine B assay; type: functional
K562 = experiment: Cytotoxicity against human K562 cells assessed as cell growth level at 10 uM after 48 hrs by sulforhodamine B assay; type: functional
MOLT-4 = experiment: Cytotoxicity against human MOLT4 cells assessed as cell growth level at 10 uM after 48 hrs by sulforhodamine B assay; type: functional
RPMI-8226 = experiment: Cytotoxicity against human RPMI8226 cells assessed as cell growth level at 10 uM after 48 hrs by sulforhodamine B assay; type: functional
A549 = experiment: Cytotoxicity against human A549/ATCC cells assessed as cell growth level at 10 uM after 48 hrs by sulforhodamine B assay; type: functional
HOP-62 = experiment: Cytotoxicity against human HOP62 cells assessed as cell growth level at 10 uM after 48 hrs by sulforhodamine B assay; type: functional
HOP-92 = experiment: Cytotoxicity against human HOP92 cells assessed as cell growth level at 10 uM after 48 hrs by sulforhodamine B assay; type: functional
NCI-H226 = experiment: Cytotoxicity against human NCI-H226 cells assessed as cell growth level at 10 uM after 48 hrs by sulforhodamine B assay; type: functional
NCI-H23 = experiment: Cytotoxicity against human NCI-H23 cells assessed as cell growth level at 10 uM after 48 hrs by sulforhodamine B assay; type: functional
NCI-H322M = experiment: Cytotoxicity against human NCI-H322M cells assessed as cell growth level at 10 uM after 48 hrs by sulforhodamine B assay; type: functional
NCI-H460 = experiment: Cytotoxicity against human NCI-H460 cells assessed as cell growth level at 10 uM after 48 hrs by sulforhodamine B assay; type: functional
NCI-H522 = experiment: Cytotoxicity against human NCI-H522 cells assessed as cell growth level at 10 uM after 48 hrs by sulforhodamine B assay; type: functional
COLO 205 = experiment: Cytotoxicity against human COLO205 cells assessed as cell growth level at 10 uM after 48 hrs by sulforhodamine B assay; type: functional
HCC 2998 = experiment: Cytotoxicity against human HCC2998 cells assessed as cell growth level at 10 uM after 48 hrs by sulforhodamine B assay; type: functional
[3] = Cytotoxicity against human HCT116 cells assessed as cell growth level at 10 uM after 48 hrs by sulforhodamine B assay; type: functional, HCT-116
[4] = Cytotoxicity against human HCT15 cells assessed as cell growth level at 10 uM after 48 hrs by sulforhodamine B assay; type: functional, HCT-15
HT-29 = experiment: Cytotoxicity against human HT-29 cells assessed as cell growth level at 10 uM after 48 hrs by sulforhodamine B assay; type: functional
KM12 = experiment: Cytotoxicity against human KM12 cells assessed as cell growth level at 10 uM after 48 hrs by sulforhodamine B assay; type: functional
SW-620 = experiment: Cytotoxicity against human SW620 cells assessed as cell growth level at 10 uM after 48 hrs by sulforhodamine B assay; type: functional
SF-268 = experiment: Cytotoxicity against human SF268 cells assessed as cell growth level at 10 uM after 48 hrs by sulforhodamine B assay; type: functional
SF-295 = experiment: Cytotoxicity against human SF295 cells assessed as cell growth level at 10 uM after 48 hrs by sulforhodamine B assay; type: functional
SF-539 = experiment: Cytotoxicity against human SF539 cells assessed as cell growth level at 10 uM after 48 hrs by sulforhodamine B assay; type: functional
SNB-19 = experiment: Cytotoxicity against human SNB19 cells assessed as cell growth level at 10 uM after 48 hrs by sulforhodamine B assay; type: functional
SNB-75 = experiment: Cytotoxicity against human SNB75 cells assessed as cell growth level at 10 uM after 48 hrs by sulforhodamine B assay; type: functional
U-251 = experiment: Cytotoxicity against human U251 cells assessed as cell growth level at 10 uM after 48 hrs by sulforhodamine B assay; type: functional
LOX IMVI = experiment: Cytotoxicity against human LOXIMVI cells assessed as cell growth level at 10 uM after 48 hrs by sulforhodamine B assay; type: functional
Malme-3M = experiment: Cytotoxicity against human MALME-3M cells assessed as cell growth level at 10 uM after 48 hrs by sulforhodamine B assay; type: functional
M14 = experiment: Cytotoxicity against human M14 cells assessed as cell growth level at 10 uM after 48 hrs by sulforhodamine B assay; type: functional
MDA-MB-435 = experiment: Cytotoxicity against human MDA-MB-435 cells assessed as cell growth level at 10 uM after 48 hrs by sulforhodamine B assay; type: functional
SK-MEL-2 = experiment: Cytotoxicity against human SK-MEL-2 cells assessed as cell growth level at 10 uM after 48 hrs by sulforhodamine B assay; type: functional
SK-MEL-28 = experiment: Cytotoxicity against human SK-MEL-28 cells assessed as cell growth level at 10 uM after 48 hrs by sulforhodamine B assay; type: functional
SK-MEL-5 = experiment: Cytotoxicity against human SK-MEL-5 cells assessed as cell growth level at 10 uM after 48 hrs by sulforhodamine B assay; type: functional
[5] = Cytotoxicity against human UACC257 cells assessed as cell growth level at 10 uM after 48 hrs by sulforhodamine B assay; type: functional, UACC-257
[6] = Cytotoxicity against human UACC62 cells assessed as cell growth level at 10 uM after 48 hrs by sulforhodamine B assay; type: functional, UACC-62
IGROV-1 = experiment: Cytotoxicity against human IGROV1 cells assessed as cell growth level at 10 uM after 48 hrs by sulforhodamine B assay; type: functional
[7] = Cytotoxicity against human OVCAR3 cells assessed as cell growth level at 10 uM after 48 hrs by sulforhodamine B assay; type: functional, OVCAR-3
[8] = Cytotoxicity against human OVCAR5 cells assessed as cell growth level at 10 uM after 48 hrs by sulforhodamine B assay; type: functional, OVCAR-5
[9] = Cytotoxicity against human OVCAR8 cells assessed as cell growth level at 10 uM after 48 hrs by sulforhodamine B assay; type: functional, OVCAR-8
[10] = Cytotoxicity against human NCI-ADR-RES cells assessed as cell growth level at 10 uM after 48 hrs by sulforhodamine B assay; type: functional
[11] = Cytotoxicity against human SKOV3 cells assessed as cell growth level at 10 uM after 48 hrs by sulforhodamine B assay; type: functional, SK-OV-3
786-0 = experiment: Cytotoxicity against human 786-0 cells assessed as cell growth level at 10 uM after 48 hrs by sulforhodamine B assay; type: functional
A498 = experiment: Cytotoxicity against human A498 cells assessed as cell growth level at 10 uM after 48 hrs by sulforhodamine B assay; type: functional
ACHN = experiment: Cytotoxicity against human ACHN cells assessed as cell growth level at 10 uM after 48 hrs by sulforhodamine B assay; type: functional
CAKI-1 = experiment: Cytotoxicity against human CAKI-1 cells assessed as cell growth level at 10 uM after 48 hrs by sulforhodamine B assay; type: functional
RXF 393 = experiment: Cytotoxicity against human RXF393 cells assessed as cell growth level at 10 uM after 48 hrs by sulforhodamine B assay; type: functional
SN12C = experiment: Cytotoxicity against human SN12C cells assessed as cell growth level at 10 uM after 48 hrs by sulforhodamine B assay; type: functional
[12] = Cytotoxicity against human UO31 cells assessed as cell growth level at 10 uM after 48 hrs by sulforhodamine B assay; type: functional, UO-31
[13] = Cytotoxicity against human PC3 cells assessed as cell growth level at 10 uM after 48 hrs by sulforhodamine B assay; type: functional, PC-3
DU-145 = experiment: Cytotoxicity against human DU145 cells assessed as cell growth level at 10 uM after 48 hrs by sulforhodamine B assay; type: functional
MCF7 = experiment: Cytotoxicity against human MCF7 cells assessed as cell growth level at 10 uM after 48 hrs by sulforhodamine B assay; type: functional
MDA-MB-231 = experiment: Cytotoxicity against human MDA-MB-231 cells assessed as cell growth level at 10 uM after 48 hrs by sulforhodamine B assay; type: functional
[14] = Cytotoxicity against human Hs 578T cells assessed as cell growth level at 10 uM after 48 hrs by sulforhodamine B assay; type: functional
BT-549 = experiment: Cytotoxicity against human BT549 cells assessed as cell growth level at 10 uM after 48 hrs by sulforhodamine B assay; type: functional
T47D = experiment: Cytotoxicity against human T47D cells assessed as cell growth level at 10 uM after 48 hrs by sulforhodamine B assay; type: functional
MDA-MB-468 = experiment: Cytotoxicity against human MDA-MB-468 cells assessed as cell growth level at 10 uM after 48 hrs by sulforhodamine B assay; type: functional

## O=C(CN1CCOCC1)Nc1cc2c(cc1O)C(=O)c1ccccc1C2=O
[1]
  IC50: > 30 µM

## O=C1c2ccccc2C(=O)c2cc3oc(SCc4ccc(F)cc4F)nc3cc21
[1]
  IC50: > 30 µM

## O=C1c2ccccc2C(=O)c2cc3oc(SCCN4CCOCC4)nc3cc21
[1]
  IC50: > 30 µM

## O=C(CN1CCCCC1)Nc1cc2c(cc1O)C(=O)c1ccccc1C2=O
[1]
  IC50: 18.5 µM

## CSc1nc2cc3c(cc2o1)C(=O)c1ccccc1C3=O
[1]
  IC50: > 30 µM

## O=C(CCN1CCOCC1)Nc1cc2c(cc1O)C(=O)c1ccccc1C2=O
[1]
  IC50: > 30 µM

## O=C1c2ccccc2C(=O)c2cc3oc(SCCc4ccccc4)nc3cc21
[1]
  IC50: > 30 µM

## O=C1c2ccccc2C(=O)c2cc3oc(=S)[nH]c3cc21
[1]
  IC50: > 30 µM
[2]
  inhibition: inactive

## O=C(CN1CCCC1)Nc1cc2c(cc1O)C(=O)c1ccccc1C2=O
[1]
  IC50: 26 µM

## O=C1c2ccccc2C(=O)c2cc3oc(SCc4ccccc4[N+](=O)[O-])nc3cc21
[1]
  IC50: > 30 µM

## O=C(CCN1CCCC1)Nc1cc2c(cc1O)C(=O)c1ccccc1C2=O
[1]
  IC50: > 30 µM
CCRF-CEM
  Activity: 87.09%
HL-60(TB)
  Activity: 103.96%
K562
  Activity: 106.34%
MOLT-4
  Activity: 114.86%
RPMI-8226
  Activity: 86.61%
A549
  Activity: 98.4%
HOP-62
  Activity: 98.3%
HOP-92
  Activity: 83.51%
NCI-H226
  Activity: 89.38%
NCI-H23
  Activity: 91.17%
NCI-H322M
  Activity: 108.8%
NCI-H460
  Activity: 101.03%
NCI-H522
  Activity: 89.35%
COLO 205
  Activity: 118.26%
HCC 2998
  Activity: 98.08%
[3]
  Activity: 98.96%
[4]
  Activity: 97.11%
HT-29
  Activity: 67.12%
KM12
  Activity: 106.65%
SW-620
  Activity: 106.36%
SF-268
  Activity: 97.79%
SF-295
  Activity: 93.19%
SF-539
  Activity: 98.8%
SNB-19
  Activity: 96.45%
SNB-75
  Activity: 89.48%
U-251
  Activity: 95.72%
LOX IMVI
  Activity: 107.45%
Malme-3M
  Activity: 142.32%
M14
  Activity: 96.96%
MDA-MB-435
  Activity: 103.97%
SK-MEL-2
  Activity: 102.06%
SK-MEL-28
  Activity: 104.99%
SK-MEL-5
  Activity: 102.47%
[5]
  Activity: 113%
[6]
  Activity: 94.37%
IGROV-1
  Activity: 112.79%
[7]
  Activity: 108.53%
[8]
  Activity: 100.56%
[9]
  Activity: 100.18%
[10]
  Activity: 103.64%
[11]
  Activity: 104.33%
786-0
  Activity: 99.72%
A498
  Activity: 86.98%
ACHN
  Activity: 82.72%
CAKI-1
  Activity: 82.42%
RXF 393
  Activity: 103.62%
SN12C
  Activity: 100.6%
[12]
  Activity: 79.74%
[13]
  Activity: 91.56%
DU-145
  Activity: 105.86%
MCF7
  Activity: 56.43%
MDA-MB-231
  Activity: 92.22%
[14]
  Activity: 97.73%
BT-549
  Activity: 96.56%
T47D
  Activity: 74.5%
MDA-MB-468
  Activity: 93.65%

## CCCCSc1nc2cc3c(cc2o1)C(=O)c1ccccc1C3=O
[1]
  IC50: > 30 µM

## O=C1c2ccccc2C(=O)c2cc3oc(SCc4ccc([N+](=O)[O-])cc4)nc3cc21
[1]
  IC50: > 30 µM
